SMILES strings stand for the structures. Structures can show the parent of a compound that is named as a salt.

One assay has as its target DNA-PK (Homo sapiens (Human), UniProt P78527). Kind of assay: DNA-PK Enzyme-Linked Immunosorbent Assay (phosphorylation of GST-p53 (1-101) peptide). In kind it is biochemical. The following applies: ELISA, ATP 20 μM. The method in brief: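 ELISA with plate-bound GST-p53 (1-101) phosphorylated by DNA-PK (0.1 μg/mL final) with 20 μM ATP for 1 h at 25 °C. Compounds tested over 10 3-fold doses from 100 nM top final. Phospho-p53 Ser15 detected by antibody, HRP and TMB, absorbance at 450 nm.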
(In an ELISA, binding on a coated surface is turned into a signal by an enzyme label.)

The target of another assay is ATM (Homo sapiens (Human), UniProt Q13315). Kind of assay: ATM in Cell Western Assay (pKAP1 in etoposide-treated MCF-7 cells). The class given is cell-based. The settings on record: MCF-7 cells, etoposide 100 μM, 1 hr, pKAP1 readout. The method in brief: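 Cells received compounds in a 10-dose, 3-fold series from a 1 μM final top concentration, then 100 μM etoposide, for 1 hr at 37° C. They were then fixed with paraformaldehyde and permeabilized with 0.1% Triton X-100. After immunostaining, plates were scanned on an infrared imager.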
Sequence of ATM (Q13315 whole entry): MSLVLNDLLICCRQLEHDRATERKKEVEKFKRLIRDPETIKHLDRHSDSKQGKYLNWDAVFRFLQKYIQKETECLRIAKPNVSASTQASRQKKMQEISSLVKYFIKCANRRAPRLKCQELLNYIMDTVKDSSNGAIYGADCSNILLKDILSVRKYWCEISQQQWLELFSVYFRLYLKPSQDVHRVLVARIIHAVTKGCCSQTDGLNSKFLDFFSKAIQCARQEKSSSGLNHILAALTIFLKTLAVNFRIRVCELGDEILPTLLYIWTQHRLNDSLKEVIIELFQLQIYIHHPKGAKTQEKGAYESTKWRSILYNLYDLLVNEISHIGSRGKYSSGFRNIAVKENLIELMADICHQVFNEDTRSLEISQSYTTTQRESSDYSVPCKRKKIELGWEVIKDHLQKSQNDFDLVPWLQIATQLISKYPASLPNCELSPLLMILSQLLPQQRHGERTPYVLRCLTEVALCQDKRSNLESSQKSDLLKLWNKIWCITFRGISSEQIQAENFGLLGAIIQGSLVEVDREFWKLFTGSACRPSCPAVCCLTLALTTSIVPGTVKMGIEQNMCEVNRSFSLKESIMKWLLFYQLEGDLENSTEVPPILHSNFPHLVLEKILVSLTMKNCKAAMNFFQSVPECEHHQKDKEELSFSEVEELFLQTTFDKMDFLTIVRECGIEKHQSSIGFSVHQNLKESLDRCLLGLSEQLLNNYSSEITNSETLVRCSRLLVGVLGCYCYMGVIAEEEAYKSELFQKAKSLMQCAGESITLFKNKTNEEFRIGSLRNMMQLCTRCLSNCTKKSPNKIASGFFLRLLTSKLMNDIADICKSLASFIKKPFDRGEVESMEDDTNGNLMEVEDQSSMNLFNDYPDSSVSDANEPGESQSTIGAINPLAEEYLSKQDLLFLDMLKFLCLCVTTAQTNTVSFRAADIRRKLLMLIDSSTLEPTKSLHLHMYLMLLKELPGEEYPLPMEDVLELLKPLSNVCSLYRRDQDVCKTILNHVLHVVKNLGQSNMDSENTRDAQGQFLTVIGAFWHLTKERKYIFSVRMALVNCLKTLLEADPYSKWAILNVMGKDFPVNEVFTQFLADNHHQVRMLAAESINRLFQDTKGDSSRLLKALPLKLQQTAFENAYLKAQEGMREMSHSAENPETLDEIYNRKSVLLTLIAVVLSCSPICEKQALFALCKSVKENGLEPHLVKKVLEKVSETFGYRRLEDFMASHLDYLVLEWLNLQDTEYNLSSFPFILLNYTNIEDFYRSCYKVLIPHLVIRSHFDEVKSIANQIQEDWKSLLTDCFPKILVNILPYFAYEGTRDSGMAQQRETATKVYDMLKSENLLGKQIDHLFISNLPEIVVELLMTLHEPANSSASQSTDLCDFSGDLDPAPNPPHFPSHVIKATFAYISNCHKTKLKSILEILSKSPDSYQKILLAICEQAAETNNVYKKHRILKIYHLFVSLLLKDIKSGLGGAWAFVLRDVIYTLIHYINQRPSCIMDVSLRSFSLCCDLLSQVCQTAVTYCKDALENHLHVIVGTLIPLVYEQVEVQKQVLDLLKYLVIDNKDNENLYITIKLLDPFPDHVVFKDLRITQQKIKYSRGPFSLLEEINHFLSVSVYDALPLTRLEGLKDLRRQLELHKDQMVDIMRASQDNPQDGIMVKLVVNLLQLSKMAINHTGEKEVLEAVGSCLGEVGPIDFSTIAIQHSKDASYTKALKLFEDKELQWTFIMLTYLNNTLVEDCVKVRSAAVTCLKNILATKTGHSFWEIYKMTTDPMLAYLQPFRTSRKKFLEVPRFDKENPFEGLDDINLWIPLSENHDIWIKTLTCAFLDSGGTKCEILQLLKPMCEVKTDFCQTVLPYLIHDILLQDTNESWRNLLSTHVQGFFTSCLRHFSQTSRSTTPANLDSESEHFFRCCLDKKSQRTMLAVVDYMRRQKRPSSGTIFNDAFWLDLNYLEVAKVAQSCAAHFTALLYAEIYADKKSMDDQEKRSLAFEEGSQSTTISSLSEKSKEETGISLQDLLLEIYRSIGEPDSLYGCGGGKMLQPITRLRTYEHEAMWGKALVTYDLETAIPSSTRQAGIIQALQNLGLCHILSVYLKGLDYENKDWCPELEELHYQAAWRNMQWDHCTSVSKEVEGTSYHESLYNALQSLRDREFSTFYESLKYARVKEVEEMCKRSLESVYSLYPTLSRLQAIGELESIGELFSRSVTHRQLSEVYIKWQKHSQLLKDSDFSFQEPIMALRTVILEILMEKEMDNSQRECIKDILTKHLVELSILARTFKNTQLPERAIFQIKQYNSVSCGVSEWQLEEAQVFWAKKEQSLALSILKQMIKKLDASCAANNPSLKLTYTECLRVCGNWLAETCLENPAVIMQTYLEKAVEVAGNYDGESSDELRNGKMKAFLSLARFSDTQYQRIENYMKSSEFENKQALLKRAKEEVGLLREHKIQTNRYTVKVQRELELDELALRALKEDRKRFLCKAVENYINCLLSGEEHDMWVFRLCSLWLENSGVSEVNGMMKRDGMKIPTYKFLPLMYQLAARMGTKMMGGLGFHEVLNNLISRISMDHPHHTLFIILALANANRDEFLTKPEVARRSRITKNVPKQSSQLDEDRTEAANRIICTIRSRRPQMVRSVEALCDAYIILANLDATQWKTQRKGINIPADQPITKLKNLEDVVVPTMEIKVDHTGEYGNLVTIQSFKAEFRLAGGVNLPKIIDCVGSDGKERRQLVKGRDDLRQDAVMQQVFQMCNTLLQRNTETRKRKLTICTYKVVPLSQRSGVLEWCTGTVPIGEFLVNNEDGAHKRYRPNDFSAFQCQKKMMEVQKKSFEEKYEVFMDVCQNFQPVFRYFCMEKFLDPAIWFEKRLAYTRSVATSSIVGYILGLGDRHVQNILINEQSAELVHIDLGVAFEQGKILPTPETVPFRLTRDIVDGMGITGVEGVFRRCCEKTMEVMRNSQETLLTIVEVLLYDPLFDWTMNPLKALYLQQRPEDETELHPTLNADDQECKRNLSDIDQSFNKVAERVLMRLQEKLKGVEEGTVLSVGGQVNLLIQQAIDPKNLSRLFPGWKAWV

Consider `CN(C)CCCOc1ncc(-c2ccc3ncc4c(c3c2F)C2(CCC2)C(=O)N4C)cc1NS(C)(=O)=O` [Example 268, N-(2-(3-(Dimethylamino)propoxy)-5-(9′-fluoro-3′-methyl-2′-oxo-2′,3′-dihydrospiro[cyclobutane-1,1′-pyrrolo[2,3-c]quinolin]-8′-yl)pyridin-3-yl)methanesulfonamide], for which the IC50 against DNA-PK and on ATM was 1 to 100 nM each time.

With `CN1C(=O)C2(CCC2)c2c1cnc1ccc(-c3cnc(OCCCN4CCCC(O)C4)c(NS(C)(=O)=O)c3)cc21` (stereo not drawn) [Example 270, N-(2-(3-(3-Hydroxypiperidin-1-yl)propoxy)-5-(3′-methyl-2′-oxo-2′,3′-dihydrospiro[cyclobutane-1,1′-pyrrolo[2,3-c]quinolin]-8′-yl)pyridin-3-yl)methanesulfonamide], the IC50 at DNA-PK and at ATM was 1 to 100 nM throughout.

Regarding `CN(C)CCCOc1ncc(-c2ccc3ncc4c(c3c2)C2(CCC2)C(=O)N4C)cc1NS(=O)(=O)c1ccsc1` [Example 272, N-(2-(3-(Dimethylamino)propoxy)-5-(3′-methyl-2′-oxo-2′,3′-dihydrospiro [cyclobutane-1,1′-pyrrolo[2,3-c]quinolin]-8′-yl)pyridin-3-yl) thiophene-3-sulfonamide], the IC50 at DNA-PK lay in the range of 1 to 100 nM; against ATM, 0.5 to 1 nM.

As for `CN(C)CCCOc1ncc(-c2ccc3ncc4c(c3c2)C2(CCC2)C(=O)N4C)cc1NS(=O)(=O)CC#N` [Example 273, 1-Cyano-N-(2-(3-(dimethylamino)propoxy)-5-(3′-methyl-2′-oxo-2′,3′-dihydrospiro[cyclobutane-1,1′-pyrrolo[2,3-c]quinolin]-8′-yl)pyridin-3-yl)methanesulfonamide], the IC50 at DNA-PK is below 0.5 nM; against ATM it was 1 to 100 nM.

In the case of `CN1C(=O)C2(CCC2)c2c1cnc1ccc(-c3cnc(N4CC(N5CCCC5)C4)c(NS(C)(=O)=O)c3)cc21` [Example 277, N-(5-(3′-Methyl-2′-oxo-2′,3′-dihydrospiro[cyclobutane-1,1′-pyrrolo[2,3-c]quinolin]-8′-yl)-2-(3-(pyrrolidin-1-yl)azetidin-1-yl)pyridin-3-yl)methanesulfonamide], the IC50 at DNA-PK and against ATM was 1 to 100 nM in each case.

Turning to `COCCN(C)CCCOc1ncc(-c2ccc3ncc4c(c3c2)C2(CCC2)C(=O)N4C)cc1NS(C)(=O)=O` [Example 278, N-(2-(3-((2-Methoxyethyl)(methyl)amino)propoxy)-5-(3′-methyl-2′-oxo-2′,3′-dihydrospiro[cyclobutane-1,1′-pyrrolo[2,3-c]quinolin]-8′-yl)pyridin-3-yl)methanesulfonamide], the IC50 against DNA-PK lay within 1 to 100 nM; against ATM, 0.5 to 1 nM.

Consider `CN1C(=O)C2(CCC2)c2c1cnc1ccc(-c3cnc(OCCCN4CCC(F)C4)c(NS(C)(=O)=O)c3)cc21` (stereo not drawn) [Example 279, N-(2-(3-(3-Fluoropyrrolidin-1-yl)propoxy)-5-(3′-methyl-2′-oxo-2′,3′-dihydrospiro[cyclobutane-1,1′-pyrrolo[2,3-c]quinolin]-8′-yl)pyridin-3-yl)methanesulfonamide], for which the IC50 against DNA-PK fell in the range of 0.5 to 1 nM; against ATM, 1 to 100 nM.

As for `COC1CCCN(CCCOc2ncc(-c3ccc4ncc5c(c4c3)C3(CCC3)C(=O)N5C)cc2NS(C)(=O)=O)C1` (stereo not drawn) [Example 280, N-(2-(3-(3-Methoxypiperidin-1-yl)propoxy)-5-(3′-methyl-2′-oxo-2′,3′-dihydrospiro[cyclobutane-1,1′-pyrrolo[2,3-c]quinolin]-8′-yl)pyridin-3-yl)methanesulfonamide], the IC50 lay within 0.5 to 1 nM at DNA-PK and 1 to 100 nM against ATM.

With `CC(C)NCCOc1ncc(-c2ccc3ncc4c(c3c2)C2(CCC2)C(=O)N4C)cc1NS(C)(=O)=O` [Example 281, N-(2-(2-(Isopropylamino)ethoxy)-5-(3′-methyl-2′-oxo-2′,3′-dihydrospiro [cyclobutane-1,1′-pyrrolo[2,3-c]quinolin]-8′-yl)pyridin-3-yl)methanesulfonamide], the IC50 on DNA-PK lay within 0.5 to 1 nM; against ATM, 1 to 100 nM.

As to `CN1C(=O)C2(CCC2)c2c1cnc1ccc(-c3cnc(OCCCN4CCCC(F)C4)c(NS(C)(=O)=O)c3)cc21` (stereo not drawn) [Example 282, N-(2-(3-(3-Fluoropiperidin-1-yl)propoxy)-5-(3′-methyl-2′-oxo-2′,3′-dihydrospiro[cyclobutane-1,1′-pyrrolo[2,3-c]quinolin]-8′-yl)pyridin-3-yl)methanesulfonamide], the IC50 at DNA-PK was below 0.5 nM; at ATM it was 1 to 100 nM.

With `COC1CCN(CCCOc2ncc(-c3ccc4ncc5c(c4c3)C3(CCC3)C(=O)N5C)cc2NS(C)(=O)=O)C1` (stereo not drawn) [Example 283, N-(2-(3-(3-Methoxypyrrolidin-1-yl)propoxy)-5-(3′-methyl-2′-oxo-2′,3′-dihydrospiro[cyclobutane-1,1′-pyrrolo[2,3-c]quinolin]-8′-yl)pyridin-3-yl)methanesulfonamide], the IC50 at DNA-PK is 0.5 to 1 nM; against ATM it was 1 to 100 nM.

As for `CN1CCC(c2ncc(-c3ccc4ncc5c(c4c3)C3(CCC3)C(=O)N5C)cc2NS(C)(=O)=O)CC1` [Example 285, N-(5-(3′-Methyl-2′-oxo-2′,3′-dihydrospiro[cyclobutane-1,1′-pyrrolo[2,3-c]quinolin]-8′-yl)-2-(1-methylpiperidin-4-yl)pyridin-3-yl)methanesulfonamide], the IC50 on DNA-PK and at ATM was 1 to 100 nM in each case.

Regarding `CN1C(=O)C2(CCC2)c2c1cnc1ccc(-c3cnc(OCCCN4CCC(F)CC4)c(NS(C)(=O)=O)c3)cc21` [Example 286, N-(2-(3-(4-Fluoropiperidin-1-yl)propoxy)-5-(3′-methyl-2′-oxo-2′,3′-dihydrospiro[cyclobutane-1,1′-pyrrolo[2,3-c]quinolin]-8′-yl)pyridin-3-yl)methanesulfonamide], the IC50 on DNA-PK was below 0.5 nM; on ATM, 1 to 100 nM.

As to `CN1C(=O)C2(CCC2)c2c1cnc1ccc(-c3cnc(OCC(O)CN4CCCCC4)c(NS(C)(=O)=O)c3)cc21` (stereo not drawn) [Example 287, N-(2-(2-Hydroxy-3-(piperidin-1-yl)propoxy)-5-(3′-methyl-2′-oxo-2′,3′-dihydrospiro[cyclobutane-1,1′-pyrrolo[2,3-c]quinolin]-8′-yl)pyridin-3-yl)methanesulfonamide], the values for the IC50 against DNA-PK and at ATM were below 0.5 nM and 1 to 100 nM, respectively.

Regarding `CN1C(=O)C2(CCC2)c2c1cnc1ccc(-c3cnc(N4CC(N(C)C)C4)c(NS(=O)(=O)N(C)C)c3)cc21` [Example 288, 8′-(6-[3-(Dimethylamino)azetidin-1-yl]-5-[(dimethylsulfamoyl)amino]pyridin-3-yl}-3′-methyl-2′,3′-dihydrospiro [cyclobutane-1,1′-pyrrolo[2,3-c]quinoline]-2′-one], the IC50 at DNA-PK was in the range of 0.5 to 1 nM; at ATM, 1 to 100 nM.

Turning to `Cc1ncc(S(=O)(=O)Nc2cc(-c3ccc4ncc5c(c4c3)C3(CCC3)C(=O)N5C)cnc2OCCCN(C)C)s1` [Example 289, N-(2-(3-(Dimethylamino)propoxy)-5-(3′-methyl-2′-oxo-2′,3′-dihydrospiro [cyclobutane-1,1′-pyrrolo [2,3-c]quinolin]-8′-yl)pyridin-3-yl)-2-methylthiazole-5-sulfonamide], the IC50 against DNA-PK lay within 0.5 to 1 nM; against ATM, 1 to 100 nM.

For the molecule `CN(C)CCCOc1ncc(-c2cc3c4c(cnc3cc2F)N(C)C(=O)C42CCC2)cc1NS(=O)(=O)N(C)C` [Example 290, 8′-{6-[3-(Dimethylamino)propoxy]-5-[(dimethylsulfamoyl)amino]pyridin-3-yl}-7′-fluoro-3′-methyl-2′,3′-dihydrospiro[cyclobutane-1,1′-pyrrolo[2,3-c]quinoline]-2′-one hydrochloride], the IC50 was in the range of 0.5 to 1 nM against DNA-PK and 1 to 100 nM against ATM.

Consider `CN(C)CCCOc1ncc(-c2cc3c4c(cnc3cc2F)N(C)C(=O)C42CCC2)cc1NS(C)(=O)=O` [Example 291, N-(2-(3-(Dimethylamino)propoxy)-5-(7′-fluoro-3′-methyl-2′-oxo-2′,3′-dihydrospiro [cyclobutane-1,1′-pyrrolo[2,3-c]quinolin]-8′-yl)pyridin-3-yl)methanesulfonamide hydrochloride], for which the IC50 against DNA-PK and against ATM was 1 to 100 nM in each case.

In the case of `CN(CCC#N)CCCOc1ncc(-c2ccc3ncc4c(c3c2)C2(CCC2)C(=O)N4C)cc1NS(C)(=O)=O` [Example 293, N-(2-(3-((2-Cyanoethyl)(methyl)amino)propoxy)-5-(3′-methyl-2′-oxo-2′3′-dihydrospiro[cyclobutane-1,1′-pyrrolo[2,3-c]quinolin]-8′-yl)pyridin-3-yl)methanesulfonamide], the IC50 at DNA-PK and against ATM was above 100 nM each time.

As for `COCCN(C)CCCOc1ncc(-c2cc3c4c(cnc3cc2F)N(C)C(=O)C42CCC2)cc1NS(=O)(=O)N1CCOCC1` [Example 294, N-(5-(7′-Fluoro-3′-methyl-2′-oxo-2′,3′-dihydrospiro[cyclobutane-1,1′-pyrrolo[2,3-c]quinolin]-8′-yl)-2-(3-((2-methoxyethyl)(methyl)amino)propoxy)pyridin-3-yl)morpholine-4-sulfonamide], the IC50 against DNA-PK and against ATM was 1 to 100 nM throughout.

Take `CN(C)CC(O)COc1ncc(-c2ccc3ncc4c(c3c2)C2(CCC2)C(=O)N4C)cc1NS(C)(=O)=O` (stereo not drawn) [Example 295, N-(2-(3-(Dimethylamino)-2-hydroxypropoxy)-5-(3′-methyl-2′-oxo-2′,3′-dihydrospiro[cyclobutane-1,1′-pyrrolo[2,3-c]quinolin]-8′-yl)pyridin-3-yl)methanesulfonamide]: the IC50 against DNA-PK is 0.5 to 1 nM; on ATM, 1 to 100 nM.

The IC50 is the concentration at which inhibition is half-maximal. Low values mean greater potency, high ones weaker potency.

For the origin of these results see patent US12187742B2 (XRAD Therapeutics, Inc., priority 2018, dated 2025).
